In the assay the target is T1, aldose reductase (Rattus norvegicus, UniProt P07943).
T1 construct: The crystalline lenses were homogenized in 135 mM sodium-potassium-phosphate buffer (pH 7.0) and centrifuged; from tissue; host or cells: lens of 6 week-old Wistar rats (30,000 rpm supernatant of homogenate)
The experiment in a line: Determination of Aldose Reductase Activity (In Vitro). Particulars: Table 3; for inhibition at 10 µM: at the concentration of 10 μM, read-out: Inhibition rate %; for IC50: rat lens aldose reductase, 20 mM glucose, 30 min, 30° C, pH 7.0, read-out: 50% Inhibition Conc. [IC50 (M)]. In kind it is biochemical, rat (Wistar). How it is done: 6 week-old Wistar rats were sacrificed under ether anesthesia, and immediately lenses were removed and stored at -20° C. The crystalline lenses were homogenized in 135 mM sodium-potassium-phosphate buffer (pH 7.0) and centrifuged for 30 min. at 30,000 rpm. The supernatant was used as an aldose-reductase solution. The above procedure was carried out at 4° C. The enzyme solution was stored at -20° C.
The measurement of aldose reductase activity was conducted according to the method as described by Duffane et al. (Biochemical Medicine, 32:99-105 (1984)).
That is, 100 gl of the above enzyme solution and 100 gl of a solution prepared by dissolving a compound obtained in the following example to a final concentration of from 1.0×10^-5 to 4.0×10^-7 M in dimethylsulfoxide (DMSO) were added to 800 gl of 135 mM sodium-potassium-phosphate buffer (pH 7.0) containing 100 mM lithium sulfate, 0.03 mM NADPH (reduced form of nicotinamide adeninc dinucleotide phosphate) and 20 mM glucose as a substrate. The sample was allowed to react for 30 min. at 30° C. The reaction was stopped by addition of 0.3 ml of 0.5N hydrochloric acid. The NADP (oxided form of nicotinamide adenine dinucleotide) formed during the above reaction was converted into a fluorescent substance by addition of 1 ml of 6N sodium hydroxide containing 10 mM imidazole. 30 min. thereafter, the sample was measured for fluorescence intensity at the fluorescence wavelength of 460 nm (excitation wavelength: 360 nm) using a fluorescence photometer F-4000 (manufactured by Hitachi, Ltd.) at room temperature. A sample containing DMSO in place of the present compound was used as a control, and its fluorescence intensity was determined in the same manner as above.
Aldose reductase is an enzyme to convert DL-glyceraldehyde or glucose into polyol in the presence of NADPH as a coenzyme. As this reaction proceeds, NADPH is converted into NADP, so that the smaller amount of NADP formed indicates higher inhibition of aldose reductase. […]

Usually inhibition stands for how much of the control response was suppressed. In general, IC50 refers to the concentration that inhibits the measured activity by half. For `COc1c(OC(C)C)cc2oc(Sc3ccc(O)cc3)cc(=O)c2c1OC(C)C` [Example 13, 5,7-diisopropoxy-2-(4-hydroxyphenylthio)-6-methoxychromone], the inhibition at 10 µM amounted to 93.7% and the IC50 came to 1.8e-08 M.

As for `COc1cc(OC)c2c(=O)cc(Sc3nnc(N)s3)oc2c1` [Example 63, 2-(2-amino-5-thiadiazolylthio)-5,7-dimethoxychromone], the inhibition at 10 µM was 31.1%.

In the case of `COc1c(OC(C)C)cc2oc(Sc3ccc(O)c(Cl)c3)cc(=O)c2c1OC(C)C` [Example 19, 2-(3-chloro-4-hydroxyphenylthio)-5,7-diisopropoxy-6-methoxychromone], the inhibition at 10 µM is 69.8% and the IC50 is 4e-06 M.

Consider `COC(=O)c1ccc(Sc2cc(=O)c3c(OC)cc(OC)cc3o2)cc1` [Example 65, methyl 4-(5,7-dimethoxychromonyl-2-thio)benzoate], for which the inhibition at 10 µM turned out to be 23.1%.

Turning to `CCOc1c(OC)c(OCC=C(C)C)cc2oc(Sc3ccc(O)cc3)cc(=O)c12` [Example 31, 5-ethoxy-2-(4-hydroxyphenylthio)-6-methoxy-7-prenyloxychromone], the inhibition at 10 µM came to 100% and the half-inhibitory concentration (IC50) was 2.3e-07 M.

Turning to `COc1c(OC(C)=O)cc2oc(Sc3ccc(O)cc3)cc(=O)c2c1OC(C)=O` [Compound 1 obtained in Example 28, 5,7-diacetoxy-2-(4-hydroxyphenylthio)-6-methoxychromone], the inhibition at 10 µM came to 95.4% and the 50% inhibitory concentration (IC50) was found to be 1.7e-07 M.

As to `COc1cc(OC)c2c(=O)cc(Oc3ccc(O)cc3)oc2c1` [Example 70, 2-(4-hydroxyphenoxy)-5,7-dimethoxychromone], the inhibition at 10 µM came out at 85.5% and the IC50 was determined as 1e-06 M.

Take `COc1cc(OC)c2c(=O)cc(Sc3ccccc3N)oc2c1` [Example 49, 5,7-dimethoxy-2-(2-aminophenylthio)chromone]: the inhibition at 10 µM came out at 48.2%.

In the case of `COc1cc(O)c2c(=O)cc(SCc3ccc(O)cc3)oc2c1` [Example 74, 5-hydroxy-2-(4-hydroxybenzylthio)-7-methoxychromone], the inhibition at 10 µM is 52.1%.

For `COc1cc(OC)c2c(=O)cc(Sc3cccc(O)c3)oc2c1` [Example 57, 2-(3-hydroxyphenylthio)-5,7-dimethoxychromone], the inhibition at 10 µM was 50.5%.

Take `COc1c(OC(C)C)cc2oc([S+]([O-])c3ccc(O)cc3)cc(=O)c2c1OC` (stereo not shown) [Compound 1 obtained in Example 34, 5,6-dimethoxy-2-(4-hydroxyphenylsulfinyl)-7-isopropoxychromone]: the inhibition at 10 µM came out at 98% and the IC50 is 4.6e-07 M.

As for `COc1cc(OC)c2c(=O)cc(Sc3cccc(Cl)c3)oc2c1` [Example 43, 5,7-dimethoxy-2-(3-chlorophenylthio)chromone], the inhibition at 10 µM worked out at 44%.

Turning to `COc1c(OC(C)=O)cc2oc(Sc3ccc(O)cc3)cc(=O)c2c1O` [Compound 2 obtained in Example 28, 7-acetoxy-5-hydroxy-2-(4-hydroxyphenylthio)-6-methoxychromone], the inhibition at 10 µM amounted to 95.4% and the IC50 turned out to be 3e-07 M.

In the case of `COc1cc2oc(Sc3ccc(O)cc3)cc(=O)c2c(O)c1OC` [Example 2, 5-hydroxy-2-(4-hydroxyphenylthio)-6,7-dimethoxychromone], the inhibition at 10 µM is 87.1% and the IC50 amounted to 1.1e-07 M.

With `COc1cc(OC)c2c(=O)cc(Sc3ccncc3)oc2c1` [Example 59, 5,7-dimethoxy-2-(4-pyridylthio)chromone], the inhibition at 10 µM worked out at 37.1%.

With `CC(C)Oc1cc(OC(C)C)c2c(=O)cc(Sc3ccc(O)cc3)oc2c1` [Example 69, 5,7-diisopropoxy-2-(4-hydroxyphenylthio)chromone], the inhibition at 10 µM was found to be 97.7%.

For the compound `COc1cc(O)c2c(=O)cc(Sc3ccc(O)cc3)oc2c1` [Example 72, 5-hydroxy-2-(4-hydroxyphenylthio)-7-methoxychromone], the inhibition at 10 µM is 84% and the half-inhibitory concentration (IC50) is 1e-07 M.

`COc1cc(OC)c2c(=O)cc(Sc3ccccc3Cl)oc2c1` [Example 42, 5,7-dimethoxy-2-(2-chlorophenylthio)chromone]: the inhibition at 10 µM was found to be 47.7%.

For the compound `COc1cc(OC)c2c(=O)cc(Sc3ccccn3)oc2c1` [Example 58, 5,7-dimethoxy-2-(2-pyridylthio)chromone], the inhibition at 10 µM came out at 37.4%.

In the case of `COc1cc(OC)c2c(=O)cc(Sc3ccccc3O)oc2c1` [Example 56, 2-(2-hydroxyphenylthio)-5,7-dimethoxychromone], the inhibition at 10 µM turned out to be 35.9%.

Take `COc1cc(OC)c2c(=O)cc(Sc3ccccc3OC)oc2c1` [Example 46, 5,7-dimethoxy-2-(2-methoxyphenylthio)chromone]: the inhibition at 10 µM is 28.4%.

For `CCCCOc1cc2oc(Sc3ccc(O)cc3)cc(=O)c2c(OCCCC)c1OC` [Example 14, 5,7-dibutoxy-2-(4-hydroxyphenylthio)-6-methoxychromone], the inhibition at 10 µM stood at 86.8% and the 50% inhibitory concentration (IC50) was determined as 1.9e-07 M.

In the case of `COc1cc(OC)c2c(=O)cc(Sc3ccccc3)oc2c1` [Example 41, 5,7-dimethoxy-2-phenylthiochromone], the inhibition at 10 µM is 52.4%.

As for `COc1cc(OC)c2c(=O)cc(Sc3ccc(C(=O)O)cc3)oc2c1` [Example 64, 4-(5,7-dimethoxychromonyl-2-thio)benzoic acid], the inhibition at 10 µM was 52.9%.

As for `COc1cc(OC)c2c(=O)cc(Sc3ccccc3C)oc2c1` [Example 52, 5,7-dimethoxy-2-(2-methylphenylthio)chromone], the inhibition at 10 µM was 31.7%.

For the compound `O=c1cc(SCc2ccc(O)cc2)oc2cc(O)cc(O)c12` [Example 75, 5,7-dihydroxy-2-(4-hydroxybenzylthio)chromone], the inhibition at 10 µM stood at 43.5%.

On to `COc1ccc(CSc2cc(=O)c3c(OC)cc(OC)cc3o2)cc1` [Example 73, 5,7-dimethoxy-2-(4-methoxybenzylthio)chromone], for which the inhibition at 10 µM was 16.4%.

Turning to `COc1cc(OC)c2c(=O)cc(Sc3ccc(CO)cc3)oc2c1` [Example 66, 5,7-dimethoxy-2-(4-hydroxymethyl-phenylthio)chromone], the inhibition at 10 µM is 31.5%.

On to `COc1cc(OC)c2c(=O)cc(Sc3ccc(O)cc3)oc2c1` [Example 71, 2-(4-hydroxyphenylthio)-5,7-dimethoxychromone], for which the inhibition at 10 µM was determined as 88.7% and the IC50 was 1e-07 M.

Take `COc1cc(O)c2c(=O)cc(Nc3ccc(O)cc3)oc2c1` [Compound 2 obtained in Example 77, 5-hydroxy-2-(4-hydroxyanilino)-7-methoxychromone]: the inhibition at 10 µM was 40%.

With `CCC(C)Oc1cc2oc(Sc3ccc(O)cc3)cc(=O)c2c(OC(C)CC)c1OC` (stereo not shown) [Example 15, 5,7-di-s-butoxy-2-(4-hydroxyphenylthio)-6-methoxychromone], the inhibition at 10 µM is 98.4% and the IC50 stood at 3.8e-08 M.

For the compound `COc1c(OC(C)C)cc2oc(S(=O)(=O)c3ccc(O)cc3)cc(=O)c2c1OC` [Compound 2 obtained in Example 34, 5,6-dimethoxy-2-(4-hydroxyphenylsulfonyl)-7-isopropoxychromone], the inhibition at 10 µM was 96.6% and the half-maximal inhibitory concentration (IC50) came out at 1e-06 M.

Turning to `COc1cc(OC)c2c(=O)cc(Sc3cccc(C)c3)oc2c1` [Example 53, 5,7-dimethoxy-2-(3-methylphenylthio)chromone], the inhibition at 10 µM worked out at 22.8%.
